ChEMBL document CHEMBL4765295, “Synthesis, pharmacological profile and 2D-QSAR studies of curcumin-amino acid conjugates as potential drug candidates” (Eur J Med Chem, 2020)
Where “and” joins values, the source holds several entries; their conditions need not be identical. Equal values may be shown once.

system: Rattus norvegicus; assay: Anti-inflammatory activity in Wistar rat assessed as inhibition of carrageenan-induced paw edema at 10 mg/kg, ip pretreated for 1 hr followed by carrageenan challenge and measured after 3 hr relative to control (reference value: 0.00 +/-0.1 %); assay type: functional; conditions: time 4 hrs

Structure (SMILES) | inhibition in vivo at 10 mg/kg [%]
COc1cc(/C=C/C(=O)/C=C(O)/C=C/c2ccc(OC(=O)CNC(=O)OC(C)(C)C)c(OC)c2)ccc1OC(=O)CNC(=O)OC(C)(C)C | 44
COc1cc(/C=C/C(=O)/C=C(O)/C=C/c2ccc(OC(=O)[C@H](C)NC(=O)OC(C)(C)C)c(OC)c2)ccc1OC(=O)[C@H](C)NC(=O)OC(C)(C)C | 20

system: Rattus norvegicus; assay: Antiinflammatory activity in Wistar rat model of carrageenan-induced paw edema assessed as reduction in thickness of paw edema at 10 mg/kg, ip pretreated for 1 hr followed by carrageenan challenge and measured after 4 hrs (reference value: 1.40 +/-0.10 mm); assay type: functional; conditions: time 5 hrs

Structure (SMILES) | Activity [mm]
COc1cc(/C=C/C(=O)/C=C(O)/C=C/c2ccc(OC(=O)CNC(=O)OC(C)(C)C)c(OC)c2)ccc1OC(=O)CNC(=O)OC(C)(C)C | 0.73
COc1cc(/C=C/C(=O)/C=C(O)/C=C/c2ccc(OC(=O)[C@H](C)NC(=O)OC(C)(C)C)c(OC)c2)ccc1OC(=O)[C@H](C)NC(=O)OC(C)(C)C | 1.04

system: Salmonella typhimurium; assay: Antibacterial activity against Salmonella typhimurium ATCC 19430 incubated for 18 hrs by agar dilution assay; assay type: functional, Salmonella enterica subsp. enterica serovar Typhimurium; conditions: Salmonella enterica

MIC | Structure (SMILES)
0.125 µg/mL and 0.183 µM | COc1cc(/C=C/C(=O)/C=C(O)/C=C/c2ccc(OC(=O)CNC(=O)OC(C)(C)C)c(OC)c2)ccc1OC(=O)CNC(=O)OC(C)(C)C
0.125 µg/mL and 0.176 µM | COc1cc(/C=C/C(=O)/C=C(O)/C=C/c2ccc(OC(=O)[C@H](C)NC(=O)OC(C)(C)C)c(OC)c2)ccc1OC(=O)[C@H](C)NC(=O)OC(C)(C)C

system: Pseudomonas aeruginosa; assay: Antibacterial activity against Pseudomonas aeruginosa ATCC 27853 incubated for 18 hrs by agar dilution assay; assay type: functional; conditions: not given

MIC | Structure (SMILES)
0.25 µg/mL and 0.366 µM | COc1cc(/C=C/C(=O)/C=C(O)/C=C/c2ccc(OC(=O)CNC(=O)OC(C)(C)C)c(OC)c2)ccc1OC(=O)CNC(=O)OC(C)(C)C
1 µg/mL and 1.41 µM | COc1cc(/C=C/C(=O)/C=C(O)/C=C/c2ccc(OC(=O)[C@H](C)NC(=O)OC(C)(C)C)c(OC)c2)ccc1OC(=O)[C@H](C)NC(=O)OC(C)(C)C

system: Rattus norvegicus; assay: Anti-inflammatory activity in Wistar rat assessed as inhibition of carrageenan-induced paw edema at 10 mg/kg, ip pretreated for 1 hr followed by carrageenan challenge and measured after 24 hr relative to control (reference value: 0.00 +/-0.3 %); assay type: functional; conditions: time 25 hrs

Structure (SMILES) | inhibition in vivo at 10 mg/kg [%]
COc1cc(/C=C/C(=O)/C=C(O)/C=C/c2ccc(OC(=O)CNC(=O)OC(C)(C)C)c(OC)c2)ccc1OC(=O)CNC(=O)OC(C)(C)C | 47
COc1cc(/C=C/C(=O)/C=C(O)/C=C/c2ccc(OC(=O)[C@H](C)NC(=O)OC(C)(C)C)c(OC)c2)ccc1OC(=O)[C@H](C)NC(=O)OC(C)(C)C | 5

system: Peritoneal macrophage; assay: Antiinflammatory activity in […] mouse Peritoneal macrophages assessed as inhibition of LPS-induced NO production at 10 uM preincubated for 1 hr followed by LPS stimulation measured after 24 hrs by Griess method relative to control (reference value: 0.0 %); assay type: functional; design: scale not given: the % may be the effect or the level left; conditions: time 25 hrs

Structure (SMILES) | Activity [%]
COc1cc(/C=C/C(=O)/C=C(O)/C=C/c2ccc(OC(=O)CNC(=O)OC(C)(C)C)c(OC)c2)ccc1OC(=O)CNC(=O)OC(C)(C)C | 33.65
COc1cc(/C=C/C(=O)/C=C(O)/C=C/c2ccc(OC(=O)[C@H](C)NC(=O)OC(C)(C)C)c(OC)c2)ccc1OC(=O)[C@H](C)NC(=O)OC(C)(C)C | 22.02

system: Rattus norvegicus; assay: Antiinflammatory activity in Wistar rat model of carrageenan-induced paw edema assessed as reduction in thickness of paw edema at 10 mg/kg, ip pretreated for 1 hr followed by carrageenan challenge and measured after 1 hr (reference value: 2.41 +/-0.05 mm); assay type: functional; conditions: time 1 hr after carrageenan

Structure (SMILES) | Activity [mm]
COc1cc(/C=C/C(=O)/C=C(O)/C=C/c2ccc(OC(=O)CNC(=O)OC(C)(C)C)c(OC)c2)ccc1OC(=O)CNC(=O)OC(C)(C)C | 1.37
COc1cc(/C=C/C(=O)/C=C(O)/C=C/c2ccc(OC(=O)[C@H](C)NC(=O)OC(C)(C)C)c(OC)c2)ccc1OC(=O)[C@H](C)NC(=O)OC(C)(C)C | 2.26

system: Rattus norvegicus; assay: Antiinflammatory activity in Wistar rat model of carrageenan-induced paw edema assessed as reduction in thickness of paw edema at 10 mg/kg, ip pretreated for 1 hr followed by carrageenan challenge and measured after 2 hrs (reference value: 2.06 +/-0.09 mm); assay type: functional; conditions: time 3 hrs

Structure (SMILES) | Activity [mm]
COc1cc(/C=C/C(=O)/C=C(O)/C=C/c2ccc(OC(=O)CNC(=O)OC(C)(C)C)c(OC)c2)ccc1OC(=O)CNC(=O)OC(C)(C)C | 1.16
COc1cc(/C=C/C(=O)/C=C(O)/C=C/c2ccc(OC(=O)[C@H](C)NC(=O)OC(C)(C)C)c(OC)c2)ccc1OC(=O)[C@H](C)NC(=O)OC(C)(C)C | 1.84

system: Peritoneal macrophage; assay: Antiinflammatory activity in […] mouse Peritoneal macrophages assessed as reduction in LPS-induced NO production by measuring reduction in stimulation index at 10 uM preincubated for 1 hr followed by LPS stimulation measured after 24 hrs by Griess method (reference value: 27.31 +/- 2.56 uM); assay type: functional; conditions: time 25 hrs

Structure (SMILES) | Activity [µM]
COc1cc(/C=C/C(=O)/C=C(O)/C=C/c2ccc(OC(=O)CNC(=O)OC(C)(C)C)c(OC)c2)ccc1OC(=O)CNC(=O)OC(C)(C)C | 18.12
COc1cc(/C=C/C(=O)/C=C(O)/C=C/c2ccc(OC(=O)[C@H](C)NC(=O)OC(C)(C)C)c(OC)c2)ccc1OC(=O)[C@H](C)NC(=O)OC(C)(C)C | 21.3

system: Rattus norvegicus; assay: Antiinflammatory activity in Wistar rat model of carrageenan-induced paw edema assessed as reduction in thickness of paw edema at 10 mg/kg, ip pretreated for 1 hr followed by carrageenan challenge and measured after 24 hrs (reference value: 0.83 +/-0.08 mm); assay type: functional; conditions: time 25 hrs

Structure (SMILES) | Activity [mm]
COc1cc(/C=C/C(=O)/C=C(O)/C=C/c2ccc(OC(=O)CNC(=O)OC(C)(C)C)c(OC)c2)ccc1OC(=O)CNC(=O)OC(C)(C)C | 0.44
COc1cc(/C=C/C(=O)/C=C(O)/C=C/c2ccc(OC(=O)[C@H](C)NC(=O)OC(C)(C)C)c(OC)c2)ccc1OC(=O)[C@H](C)NC(=O)OC(C)(C)C | 0.79

system: Streptococcus pyogenes; assay: Antibacterial activity against Streptococcus pyogenes ATCC 19615 incubated for 18 hrs by agar dilution method; assay type: functional; conditions: not given

MIC | Structure (SMILES)
1 µg/mL and 1.47 µM | COc1cc(/C=C/C(=O)/C=C(O)/C=C/c2ccc(OC(=O)CNC(=O)OC(C)(C)C)c(OC)c2)ccc1OC(=O)CNC(=O)OC(C)(C)C
0.25 µg/mL and 0.352 µM | COc1cc(/C=C/C(=O)/C=C(O)/C=C/c2ccc(OC(=O)[C@H](C)NC(=O)OC(C)(C)C)c(OC)c2)ccc1OC(=O)[C@H](C)NC(=O)OC(C)(C)C

system: Rattus norvegicus; assay: Anti-inflammatory activity in Wistar rat assessed as inhibition of carrageenan-induced paw edema at 10 mg/kg, ip pretreated for 1 hr followed by carrageenan challenge and measured after 1 hr relative to control (reference value: 0.00 +/-0.02 %); assay type: functional; conditions: time 2 hrs

Structure (SMILES) | inhibition in vivo at 10 mg/kg [%]
COc1cc(/C=C/C(=O)/C=C(O)/C=C/c2ccc(OC(=O)CNC(=O)OC(C)(C)C)c(OC)c2)ccc1OC(=O)CNC(=O)OC(C)(C)C | 43
COc1cc(/C=C/C(=O)/C=C(O)/C=C/c2ccc(OC(=O)[C@H](C)NC(=O)OC(C)(C)C)c(OC)c2)ccc1OC(=O)[C@H](C)NC(=O)OC(C)(C)C | 6

system: Rattus norvegicus; assay: Anti-inflammatory activity in Wistar rat assessed as inhibition of carrageenan-induced paw edema at 10 mg/kg, ip pretreated for 1 hr followed by carrageenan challenge and measured after 2 hr relative to control (reference value: 0.00 +/-0.03 %); assay type: functional; conditions: time 3 hrs

Structure (SMILES) | inhibition in vivo at 10 mg/kg [%]
COc1cc(/C=C/C(=O)/C=C(O)/C=C/c2ccc(OC(=O)CNC(=O)OC(C)(C)C)c(OC)c2)ccc1OC(=O)CNC(=O)OC(C)(C)C | 44
COc1cc(/C=C/C(=O)/C=C(O)/C=C/c2ccc(OC(=O)[C@H](C)NC(=O)OC(C)(C)C)c(OC)c2)ccc1OC(=O)[C@H](C)NC(=O)OC(C)(C)C | 11

system: Staphylococcus aureus; assay: Antibacterial activity against Staphylococcus aureus ATCC 25923 incubated for 18 hrs by agar dilution method; assay type: functional; conditions: not given

MIC | Structure (SMILES)
0.25 µg/mL and 0.366 µM | COc1cc(/C=C/C(=O)/C=C(O)/C=C/c2ccc(OC(=O)CNC(=O)OC(C)(C)C)c(OC)c2)ccc1OC(=O)CNC(=O)OC(C)(C)C
0.125 µg/mL and 0.176 µM | COc1cc(/C=C/C(=O)/C=C(O)/C=C/c2ccc(OC(=O)[C@H](C)NC(=O)OC(C)(C)C)c(OC)c2)ccc1OC(=O)[C@H](C)NC(=O)OC(C)(C)C

system: Splenocyte; assay: Immunomodulatory activity in Swiss albino mouse splenocytes assessed as cell viability at 10 uM by measuring stimulation index incubated for 72 hrs in presence of mitogenic stimulus phytohaemagglutinin by MTT assay (reference value: 1.00 +/- 0.24); assay type: functional; conditions: not given

Structure (SMILES) | Activity_index
COc1cc(/C=C/C(=O)/C=C(O)/C=C/c2ccc(OC(=O)CNC(=O)OC(C)(C)C)c(OC)c2)ccc1OC(=O)CNC(=O)OC(C)(C)C | 2.11
COc1cc(/C=C/C(=O)/C=C(O)/C=C/c2ccc(OC(=O)[C@H](C)NC(=O)OC(C)(C)C)c(OC)c2)ccc1OC(=O)[C@H](C)NC(=O)OC(C)(C)C | 2.71

system: Rattus norvegicus; assay: Anti-inflammatory activity in Wistar rat assessed as inhibition of carrageenan-induced paw edema at 10 mg/kg, ip pretreated for 1 hr followed by carrageenan challenge and measured after 4 hr relative to indomethacin; assay type: functional; conditions: time 5 hrs

Structure (SMILES) | inhibition in vivo at 10 mg/kg [%]
COc1cc(/C=C/C(=O)/C=C(O)/C=C/c2ccc(OC(=O)CNC(=O)OC(C)(C)C)c(OC)c2)ccc1OC(=O)CNC(=O)OC(C)(C)C | 55
COc1cc(/C=C/C(=O)/C=C(O)/C=C/c2ccc(OC(=O)[C@H](C)NC(=O)OC(C)(C)C)c(OC)c2)ccc1OC(=O)[C@H](C)NC(=O)OC(C)(C)C | 32

system: Rattus norvegicus; assay: Antiinflammatory activity in Wistar rat model of carrageenan-induced paw edema assessed as reduction in thickness of paw edema at 10 mg/kg, ip pretreated for 1 hr followed by carrageenan challenge and measured after 3 hrs (reference value: 1.79 +/-0.07 mm); assay type: functional; conditions: time 4 hrs

Structure (SMILES) | Activity [mm]
COc1cc(/C=C/C(=O)/C=C(O)/C=C/c2ccc(OC(=O)CNC(=O)OC(C)(C)C)c(OC)c2)ccc1OC(=O)CNC(=O)OC(C)(C)C | 1
COc1cc(/C=C/C(=O)/C=C(O)/C=C/c2ccc(OC(=O)[C@H](C)NC(=O)OC(C)(C)C)c(OC)c2)ccc1OC(=O)[C@H](C)NC(=O)OC(C)(C)C | 1.44

system: Candida albicans; assay: Antifungal activity against Candida albicans incubated for 18 to 24 hrs by CLSI method; assay type: functional; conditions: time 18-24 hrs

MIC | Structure (SMILES)
0.5 µg/mL and 0.732 µM | COc1cc(/C=C/C(=O)/C=C(O)/C=C/c2ccc(OC(=O)CNC(=O)OC(C)(C)C)c(OC)c2)ccc1OC(=O)CNC(=O)OC(C)(C)C
1 µg/mL and 1.41 µM | COc1cc(/C=C/C(=O)/C=C(O)/C=C/c2ccc(OC(=O)[C@H](C)NC(=O)OC(C)(C)C)c(OC)c2)ccc1OC(=O)[C@H](C)NC(=O)OC(C)(C)C

system: Rattus norvegicus; assay: Anti-inflammatory activity in Wistar rat assessed as inhibition of carrageenan-induced paw edema at 10 mg/kg, ip pretreated for 1 hr followed by carrageenan challenge and measured after 4 hr relative to control (reference value: 0.00 +/-0.4 %); assay type: functional; conditions: time 5 hrs

Structure (SMILES) | inhibition in vivo at 10 mg/kg [%]
COc1cc(/C=C/C(=O)/C=C(O)/C=C/c2ccc(OC(=O)CNC(=O)OC(C)(C)C)c(OC)c2)ccc1OC(=O)CNC(=O)OC(C)(C)C | 48
COc1cc(/C=C/C(=O)/C=C(O)/C=C/c2ccc(OC(=O)[C@H](C)NC(=O)OC(C)(C)C)c(OC)c2)ccc1OC(=O)[C@H](C)NC(=O)OC(C)(C)C | 28

system: Splenocyte; assay: Immunomodulatory activity in Swiss albino mouse splenocytes assessed as cell viability at 10 uM by measuring inhibition of stimulation index incubated for 72 hrs in presence of mitogenic stimulus phytohaemagglutinin by MTT assay relative to indomethacin; assay type: functional; conditions: read-out: Activity

Structure (SMILES) | viability at 10 µM [%]
COc1cc(/C=C/C(=O)/C=C(O)/C=C/c2ccc(OC(=O)CNC(=O)OC(C)(C)C)c(OC)c2)ccc1OC(=O)CNC(=O)OC(C)(C)C | 57.4
COc1cc(/C=C/C(=O)/C=C(O)/C=C/c2ccc(OC(=O)[C@H](C)NC(=O)OC(C)(C)C)c(OC)c2)ccc1OC(=O)[C@H](C)NC(=O)OC(C)(C)C | 44.6
